Measured values: PMC8187775, “Metabolism and Tissue Distribution of Chelerythrine and Effects of Macleaya Cordata Extracts on Liver NAD(P)H Quinone Oxidoreductase” (Frontiers in Veterinary Science, 2021)

What was measured:
[1] = Tissue residues of sanguinarine and chelerythrine after 3 weeks of intragastric M. cordata extracts (HPLC-MS/MS)
Experimental: Tissue distribution was carried out in eighteen SD rats (160–180 g, nine males and nine females). Twelve rats (six male and six female) were intragastrically administered with M. cordata extracts at a single dosage of 5 mg/kg (containing about 2 mg/kg dose of sanguinarine and 1 mg/kg dose of chelerythrine) in water with the dissolving aid of Tween-80 for 3 weeks. Three male and three female rats were given the same amount of water as the blank control group by intragastric administration.
(§1) The preparations of plasma, urine, feces, and tissues were pretreatments according to our current study ([19]).
The controls of the operating parameters were as follows: capillary voltage, 3,500 V; EM voltage, 200 V; dry gas (N2) flow rate, 12 L/min; ion source temperature, 350°C; nebulizer, 25 psi.
The proposed method was validated by evaluation of specificity, accuracy, precision, LOD, and LOQ.

[2] = target: T1, NAD(P)H quinone oxidoreductase (NQO1) (Rattus norvegicus, UniProt P05982); experiment: In vitro inhibition of rat cytosolic NQO1 activity (DCPIP reduction); format: biochemical; details: for NQO1 activities: compound 40.00 μM, control 67.14 ± 4.82; for NQO1 activities / Effect on NQO1 activity: rat liver cytosol; for Effect on NQO1 activity: in vitro
T1 construct: 50 μg/mL rat liver cytosol; from tissue; host or cells: rat liver cytosol
T1 sequence (P05982 2-274 limits assumed): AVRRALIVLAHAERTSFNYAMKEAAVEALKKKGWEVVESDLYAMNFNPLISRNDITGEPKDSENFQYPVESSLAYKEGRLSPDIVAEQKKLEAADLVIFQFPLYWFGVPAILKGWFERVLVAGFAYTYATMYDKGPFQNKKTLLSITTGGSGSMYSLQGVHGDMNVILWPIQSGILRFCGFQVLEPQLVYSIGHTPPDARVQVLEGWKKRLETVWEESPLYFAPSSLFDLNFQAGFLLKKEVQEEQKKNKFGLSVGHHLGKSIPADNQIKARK
Experimental: Any change in absorbance was monitored at 620 nm, and NQO1 activity was calculated by using the extinction coefficient for DCPIP (ε = 21 mM^−1cm^−1) and expressed as nanomles of DCPIP reduced per minute per milligram of protein.
The inhibitory effects of sanguinarine and chelerythrine were determined by the incubation of the reaction mixture with or without substrate. […] All of the incubations and sample preparations were carried out as described for the NQO1 assay above.

[3] = Metabolite profile of sanguinarine in plasma, urine and feces of rats after intragastric M. cordata extracts; format: in vivo, rat
[4] = Chelerythrine/sanguinarine and metabolites in rat tissues after 3 weeks of intragastric M. cordata extracts (HPLC/QqTOF-MS); format: in vivo
Experimental: Tissue samples including cecal contents, lung, heart, liver, kidney, and spleen were collected at 24 and 48 h after the last administration and stored at −70°C.
(§2) The injection volume was 5 μL.
The quarantine window was set at 1 amu.

rat liver cytosol = experiment: Effect of inhibitors on chelerythrine iminium bond reduction to DHCHE by rat liver cytosol; format: in vitro ADME; details: 100 μmol/L inhibitor, 0.25 mg/mL cytosol protein, 2 mM NADPH, 10 μg/mL chelerythrine, 15 min
Experimental: In brief, the incubation mixture consisted of 0.25 mg/mL cytosol protein, 5 mM MgCl2, 100 μmol/L inhibitor, and 2 mM NADPH in 0.05 M Tris-HCl buffer (pH 7.4). The inhibitors were dicoumarol (quinone oxidoreductase 1), quercetin (quinone oxidoreductase 2, carbonyl reductase), menadione (aldehyde oxidase, carbonyl reductase), and 7-hydroxycoumarin (xanthine oxidase). The reaction was preincubated at 37°C for 5 min. […] The incubation mixtures without the inhibitor or cytosol protein acted as the blank control. The reaction was stopped by adding 200 μL ice-cold acetonitrile after 15 min, and the mixture was vortexed and centrifuged at 12,000 g for 15 min. […] Phenomenex Co. USA). The mobile phase consisted of a 30/70 (v/v) mixture of solvent A (0.2% aqueous acetic acid solution) and solvent B (acetonitrile). The injection dose was 10 μl and the flow rate was 1 mL/min. The column temperature was set to 35°C and the detection wavelength was set to 285 nm. The DHCHE standard curve varied linearly in the concentration range from 0.050 to 10 μg/mL. […] The lower limit of quantification was 0.050 μg/mL.

[5] = design: method as in none printed; details: no species, dose or reference given; cited from earlier work
[6] = Metabolite profile of chelerythrine in plasma, urine and feces of rats after intragastric chelerythrine (HPLC/QqTOF-MS)
Experimental: Ten SD rats (160–180 g, five males and five females) were individually placed in stainless steel metabolic cages. […] Chelerythrine in water with the dissolving aid of Tween-80 was intragastrically administered to rats at a dose of 10 mg/kg. One milliliter whole blood samples were collected from retro orbital sinus with a heparinized blood collection tube at 3 h following drug dosing. Each collected blood sample was centrifuged at 3,000 rpm at 4°C for 10 min to obtain plasma samples. […] All samples were collected from female and male rats and stored at −70°C.
as §1, §2
Nitrogen was used as atomization gas, and the flow rate was 9 L/min. The parameters of the mass spectrometer were as follows: nozzle voltage 1 kv, capillary voltage 4.0 kv, sheath gas temperature 350°C, sheath gas flow rate 11 L/min, nebulizer voltage 35 psig. The quarantine window was set at 1 amu. The instrument automatically performed the internal mass calibration though the automated calibrate transfer system. […] All the data acquisition was controlled by Agilent Mass Hunter software (version B.01.03 Build 1.3.157.0 2), and the Agilent Mass Hunter software (Qualitative Analysis B.04.0) was used to accurately take mass measurements of each peak from the total ion chromatograms. Then, these metabolites were subjected to accurate EIC, and the acceptance or rejection was decided according to the peak appearing in the EIC. Structural elucidations of chelerythrine metabolites were carried out on the basis of the mass change from the metabolite or parent drug, the predicted elemental compositions, and the interpretation of accurate MS/MS spectra.

## C[n+]1cc2c3c(ccc2c2ccc4cc5c(cc4c21)OCO5)OCO3 [Sanguinarine]
[1]; both, SD, rat, in vivo, 5 mg/kg, Residue in heart, 24 h after last dose, M. cordata extracts 5 mg/kg intragastric for 3 weeks
  concentration at 24 h: 2.91 ng/g
[1]; both, SD, rat, in vivo, 5 mg/kg, Residue in heart, 48 h after last dose, M. cordata extracts 5 mg/kg intragastric for 3 weeks
  concentration at 48 h: 2.57 ng/g
[1]; both, SD, rat, in vivo, 5 mg/kg, Residue in kidney, 24 h after last dose, M. cordata extracts 5 mg/kg intragastric for 3 weeks
  concentration at 24 h: 3.77 ng/g
[1]; both, SD, rat, in vivo, 5 mg/kg, Residue in kidney, 48 h after last dose, M. cordata extracts 5 mg/kg intragastric for 3 weeks
  concentration at 48 h: 5.65 ng/g
[1]; both, SD, rat, in vivo, 5 mg/kg, Residue in liver, 24 h after last dose, M. cordata extracts 5 mg/kg intragastric for 3 weeks
  concentration at 24 h: 10.4 ng/g
[1]; both, SD, rat, in vivo, 5 mg/kg, Residue in liver, 48 h after last dose, M. cordata extracts 5 mg/kg intragastric for 3 weeks
  concentration at 48 h: 9.8 ng/g
[1]; both, SD, rat, in vivo, 5 mg/kg, Residue in lung, 24 h after last dose, M. cordata extracts 5 mg/kg intragastric for 3 weeks
  concentration at 24 h: 2.29 ng/g
[1]; both, SD, rat, in vivo, 5 mg/kg, Residue in lung, 48 h after last dose, M. cordata extracts 5 mg/kg intragastric for 3 weeks
  concentration at 48 h: 2.01 ng/g
[1]; both, SD, rat, in vivo, 5 mg/kg, Residue in spleen, 24 h after last dose, M. cordata extracts 5 mg/kg intragastric for 3 weeks
  concentration at 24 h: 2.01 ng/g
[1]; both, SD, rat, in vivo, 5 mg/kg, Residue in spleen, 48 h after last dose, M. cordata extracts 5 mg/kg intragastric for 3 weeks
  concentration at 48 h: 1.91 ng/g
[1]; tissues other than chelerythrine in liver 48 h and spleen 24 h
  Concentrations in other tissues: < 11 ng/g
[2]
  NQO1 activities: 45.08 ± 4.34 nanomolars of 2,6-dichlorophenolindophenol reduced per minute per milligram of protein
  Effect on NQO1 activity: statistically significant decline
[2]; rat liver cytosol 50 μg/mL, 40 μM DCPIP, 0.2 mM NADH, 0–40 μM compound
  IC50: 112 ± 6.17 µM
[3]; rats, after intragastric M. cordata extracts
  Observed in plasma at 3 h and urine of 0–24 h: No parent drug or metabolites were observed
[4]
  Found in spleen, lung, kidney, liver or heart by HPLC/QqTOF-MS: no sanguinarine and chelerythrine or their metabolites were found

## CC1=CC(=O)c2ccccc2C1=O [menadione]
Rat liver cytosol
  Effect on iminium bond reduction of chelerythrine (DHCHE formation) in rat liver cytosol: could inhibit

## COc1ccc2c(c[n+](C)c3c4cc5c(cc4ccc23)OCO5)c1OC [Chelerythrine]
[5]
  Cmax: 5.06 ng/mL
  T1/2: 2.82 h
  Tmax: 1.67 h
[1]; both, SD, rat, in vivo
  Concentrations in (others) tissues: < 15 ng/g
[1]; both, SD, rat, in vivo, Concentration in spleen
  concentration at 24 h: 44 ng/mL
[1]; both, SD, rat, in vivo, Concentration in the liver
  concentration at 48 h: 20.6 ng/mL
[6]; male and female rats, three hours after intragastric chelerythrine
  Detection in plasma: no parent drug and metabolites were detected
[2]
  NQO1 activities: 64.90 ± 4.24 nanomolars of 2,6-dichlorophenolindophenol reduced per minute per milligram of protein
  Effect on NQO1 activity: weak impact
[4]
  Found in spleen, lung, kidney, liver or heart by HPLC/QqTOF-MS: no sanguinarine and chelerythrine or their metabolites were found

## O=c1ccc2ccc(O)cc2o1 [7-hydroxycoumarin]
Rat liver cytosol
  Effect on iminium bond reduction of chelerythrine (DHCHE formation) in rat liver cytosol: could inhibit

## O=c1c(O)c(-c2ccc(O)c(O)c2)oc2cc(O)cc(O)c12 [quercetin]
Rat liver cytosol
  Effect on iminium bond reduction of chelerythrine (DHCHE formation) in rat liver cytosol: could inhibit

## CN1Cc2c(ccc3c2OCO3)-c2ccc3cc4c(cc3c21)OCO4 [Metabolite S1, dihydrosanguinarine]
[3]; 5 mg/kg M. cordata extracts intragastric
  Observed in rats in vivo (feces 0–24 h): observed

## COc1ccc2c(c1OC)CN(C)c1c-2ccc2cc3c(cc12)OCO3 [DHCHE, dihydrochelerythrine]
[6]; rat, in vivo
  Found in feces: found
  Observed in feces: observed

## O=c1oc2ccccc2c(O)c1Cc1c(O)c2ccccc2oc1=O [Dicoumarol, dicoumarol]
Rat liver cytosol
  Effect on iminium bond reduction of chelerythrine (DHCHE formation) in rat liver cytosol: could inhibit
